This passage reports T/C results from PubChem BioAssay AID220 (DTP/NCI, 2004).

In the assay the test system is CD8F1 mice, subcutaneous mammary adenocarcinoma, T/C%. Description: NCI In Vivo Anticancer Drug Screen. Data for tumor model Mammary Adenocarcinoma CD8F1 (subcutaneous) in CD8F1. Particulars: higher = larger tumour. The method, boiled down: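 Antitumor activity is assessed in transplantable-tumor mice by comparing the treated group with a vehicle-treated control group. Survival or tumor size serves as the measure, reported as T divided by C.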

The structures appear in SMILES notation. Values joined by “and” are separate entries in the source; they are usually repeats but may differ in a detail not shown here. Equal entries are not always repeated. Records with an inconclusive call do not appear.

As for `O=c1[nH]cc(F)c(=O)[nH]1`, the T/C (endpoint: mean tumor weight (est.), dose: 50.0 mg/kg/injection, schedule: Q07DX004 (ip), vehicle: saline) is 28 % of control; the T/C (endpoint: mean tumor weight (est.), dose: 50.0 mg/kg/injection, schedule: Q07DX004 (iv), vehicle: saline) was 25 % of control; the T/C (endpoint: mean tumor weight (est.), dose: 100.0 mg/kg/injection, schedule: Q07DX003 (ip), vehicle: saline) was 15 % of control; the T/C (endpoint: mean tumor weight (est.), dose: 100.0 mg/kg/injection, schedule: Q07DX004 (ip), vehicle: saline) is 2 % of control; the T/C (endpoint: mean tumor weight (est.), dose: 100.0 mg/kg/injection, schedule: Q07DX004 (iv), vehicle: saline) is 3 % of control; the T/C (endpoint: mean tumor weight (est.), dose: 115.0 mg/kg/injection, schedule: Q07DX003 (ip), vehicle: saline) was 14 % of control. The T/C (endpoint: mean tumor weight (est.), dose: 130.0 mg/kg/injection, schedule: Q07DX003 (ip), vehicle: saline) was 5 % of control; the T/C (endpoint: mean tumor weight, dose: 5.0 mg/kg/injection, schedule: Q01DX009 (ip), vehicle: saline) is 159 % of control; the T/C (endpoint: mean tumor weight, dose: 10.0 mg/kg/injection, schedule: Q01DX009 (ip), vehicle: saline) was 199 % of control; the T/C (endpoint: mean tumor weight, dose: 20.0 mg/kg/injection, schedule: Q01DX009 (ip), vehicle: saline) is 4 % of control; the T/C (endpoint: mean tumor weight, dose: 25.0 mg/kg/injection, schedule: Q07DX006 (ip), vehicle: saline) is 105 % of control; the T/C (endpoint: mean tumor weight, dose: 25.0 mg/kg/injection, schedule: Q07DX007 (ip), vehicle: saline) was 92 % of control. For the same compound, the T/C is, setting by setting: (endpoint: mean tumor weight, dose: 50.0 mg/kg/injection, schedule: Q07DX006 (ip), vehicle: saline) 10 % of control; (endpoint: mean tumor weight, dose: 50.0 mg/kg/injection, schedule: Q07DX007 (ip), vehicle: saline) 11 % of control; (endpoint: median tumor weight (est.), dose: 5.0 mg/kg/injection, schedule: Q01DX005 (ip), vehicle: saline) 176 % of control; (endpoint: median tumor weight (est.), dose: 10.0 mg/kg/injection, schedule: Q01DX005 (ip), vehicle: saline) 20 % of control; (endpoint: median tumor weight (est.), dose: 15.0 mg/kg/injection, schedule: Q04DX005 (ip), vehicle: saline) 17 % of control; (endpoint: median tumor weight (est.), dose: 15.0 mg/kg/injection, schedule: Q07DX005 (ip), vehicle: saline) 4 % of control. Moreover, the T/C was 49 % of control (endpoint: median tumor weight (est.), dose: 20.0 mg/kg/injection, schedule: Q01DX005 (ip), vehicle: saline); 39 % of control (endpoint: median tumor weight (est.), dose: 25.0 mg/kg/injection, schedule: Q01DX005 (ip), vehicle: saline); 30 % of control (endpoint: median tumor weight (est.), dose: 25.0 mg/kg/injection, schedule: Q04DX005 (ip), vehicle: saline); 19 % of control (endpoint: median tumor weight (est.), dose: 25.0 mg/kg/injection, schedule: Q07DX005 (ip), vehicle: saline); 86 % of control (endpoint: median tumor weight (est.), dose: 27.0 mg/kg/injection, schedule: Q07DX005 (ip), vehicle: saline); 24 % of control (endpoint: median tumor weight (est.), dose: 30.0 mg/kg/injection, schedule: Q04DX005 (ip), vehicle: saline). Further, the T/C (endpoint: median tumor weight (est.), dose: 30.0 mg/kg/injection, schedule: Q07DX005 (ip), vehicle: saline) is 5 % of control; the T/C (endpoint: median tumor weight (est.), dose: 37.5 mg/kg/injection, schedule: Q01DX005 (ip), vehicle: saline) was 14 % of control; the T/C (endpoint: median tumor weight (est.), dose: 37.5 mg/kg/injection, schedule: Q04DX005 (ip), vehicle: saline) was 24 % of control; the T/C (endpoint: median tumor weight (est.), dose: 37.5 mg/kg/injection, schedule: Q07DX005 (ip), vehicle: saline) is 27 % of control; the T/C (endpoint: median tumor weight (est.), dose: 40.0 mg/kg/injection, schedule: Q07DX005 (ip), vehicle: saline) was 48 % of control; the T/C (endpoint: median tumor weight (est.), dose: 50.0 mg/kg/injection, schedule: Q04DX005 (ip), vehicle: saline) was 9 % of control. Moreover, the T/C was 2 % of control (endpoint: median tumor weight (est.), dose: 50.0 mg/kg/injection, schedule: Q07DX005 (ip), vehicle: saline); 18 % of control (endpoint: median tumor weight (est.), dose: 60.0 mg/kg/injection, schedule: Q07DX005 (ip), vehicle: saline); 30 % of control (endpoint: median tumor weight (est.), dose: 89.0 mg/kg/injection, schedule: Q01DX001 (ip), vehicle: saline); 9 % of control (endpoint: median tumor weight (est.), dose: 90.0 mg/kg/injection, schedule: Q07DX005 (ip), vehicle: saline); 22 % of control (endpoint: median tumor weight (est.), dose: 133.0 mg/kg/injection, schedule: Q01DX001 (ip), vehicle: saline); 21 % of control (endpoint: median tumor weight (est.), dose: 200.0 mg/kg/injection, schedule: Q01DX001 (ip), vehicle: saline). For the same compound, the T/C runs as follows: (endpoint: median tumor weight (est.), dose: 270.0 mg/kg/injection, schedule: Q01DX001 (ip), vehicle: saline) 17 % of control; (endpoint: median tumor weight change, dose: 25.0 mg/kg/injection, schedule: Q01DX001 (ip), vehicle: saline) 103 % of control; (endpoint: median tumor weight change, dose: 50.0 mg/kg/injection, schedule: Q01DX001 (ip), vehicle: saline) 61 % of control; (endpoint: median tumor weight change, dose: 100.0 mg/kg/injection, schedule: Q01DX001 (ip), vehicle: saline) 33 % of control.

In the case of `COc1ccc(C(=O)c2no[n+]([O-])c2C(=O)c2ccc(OC)cc2)cc1`, the T/C (endpoint: median tumor weight change, dose: 500.0 mg/kg/injection, schedule: Q01DX001 (ip), vehicle: saline with Tween-80) was 84 % of control.

Turning to `NC1=NC(=O)N2CC12` (centres undefined), the T/C (endpoint: median tumor weight change, dose: 125.0 mg/kg/injection, schedule: Q01DX001 (ip), vehicle: saline) is 115 % of control and the T/C (endpoint: median tumor weight change, dose: 250.0 mg/kg/injection, schedule: Q01DX001 (ip), vehicle: saline) was 122 % of control.

On to `C=CC(C)NC(=S)NNC(=S)NC` (centres undefined), for which the T/C (endpoint: median tumor weight change, dose: 62.5 mg/kg/injection, schedule: Q01DX001 (ip), vehicle: saline + alcohol) was 155 % of control; the T/C (endpoint: median tumor weight change, dose: 125.0 mg/kg/injection, schedule: Q01DX001 (ip), vehicle: saline + alcohol) is 164 % of control; the T/C (endpoint: median tumor weight change, dose: 250.0 mg/kg/injection, schedule: Q01DX001 (ip), vehicle: saline + alcohol) is 119 % of control; the T/C (endpoint: median tumor weight change, dose: 500.0 mg/kg/injection, schedule: Q01DX001 (ip), vehicle: saline + alcohol) is 82 % of control.

As for `CN(C)c1ccc2c(NCCCCCCNc3ccnc4cc(N(C)C)ccc34)ccnc2c1`, the T/C runs as follows: (endpoint: median tumor weight change, dose: 15.62 mg/kg/injection, schedule: Q01DX001 (ip), vehicle: distilled water + Tween-80 + alcohol) 66 % of control; (endpoint: median tumor weight change, dose: 31.0 mg/kg/injection, schedule: Q01DX001 (ip), vehicle: distilled water + Tween-80 + alcohol) 94 % of control; (endpoint: median tumor weight change, dose: 31.25 mg/kg/injection, schedule: Q01DX001 (ip), vehicle: distilled water + Tween-80 + alcohol) 96 % of control; (endpoint: median tumor weight change, dose: 62.5 mg/kg/injection, schedule: Q01DX001 (ip), vehicle: distilled water + Tween-80 + alcohol) 3 % of control; (endpoint: median tumor weight change, dose: 62.5 mg/kg/injection, schedule: Q01DX001 (ip), vehicle: distilled water + Tween-80) 48 % of control; (endpoint: median tumor weight change, dose: 125.0 mg/kg/injection, schedule: Q01DX001 (ip), vehicle: distilled water + Tween-80 + alcohol) 51 % of control. Moreover, under “endpoint: median tumor weight change, dose: 250.0 mg/kg/injection, schedule: Q01DX001 (ip), vehicle: distilled water + Tween-80 + alcohol”, the T/C is 8 % of control and 28 % of control.

For the compound `Cc1ccc(C2NC(=S)N3C(c4ccc(C)cc4)NC(=S)N23)cc1` (centres undefined), the T/C is 77 % of control (endpoint: median tumor weight change, dose: 125.0 mg/kg/injection, schedule: Q01DX001 (ip), vehicle: Klucel (hydroxypropylcellulose) (HPC)); 104 % of control (endpoint: median tumor weight change, dose: 250.0 mg/kg/injection, schedule: Q01DX001 (ip), vehicle: Klucel (hydroxypropylcellulose) (HPC)); 107 % of control (endpoint: median tumor weight change, dose: 500.0 mg/kg/injection, schedule: Q01DX001 (ip), vehicle: Klucel (hydroxypropylcellulose) (HPC)); 94 % of control (endpoint: median tumor weight change, dose: 1000.0 mg/kg/injection, schedule: Q01DX001 (ip), vehicle: Klucel (hydroxypropylcellulose) (HPC)); 68 % of control (endpoint: median tumor weight change, dose: 2000.0 mg/kg/injection, schedule: Q01DX001 (ip), vehicle: Klucel (hydroxypropylcellulose) (HPC)).

Regarding `Nc1nc([Se])c2ncn(C3OC(CO)C(O)C3O)c2n1` (centres undefined), the T/C is 92 % of control (endpoint: median tumor weight (est.), dose: 2.0 mg/kg/injection, schedule: Q07DX005 (ip), vehicle: saline); 54 % of control (endpoint: median tumor weight (est.), dose: 4.0 mg/kg/injection, schedule: Q07DX005 (ip), vehicle: saline); 68 % of control (endpoint: median tumor weight (est.), dose: 8.0 mg/kg/injection, schedule: Q07DX005 (ip), vehicle: saline); 24 % of control (endpoint: median tumor weight (est.), dose: 8.0 mg/kg/injection, schedule: Q07DX005 (ip), vehicle: suspension in saline); 70 % of control (endpoint: median tumor weight (est.), dose: 16.0 mg/kg/injection, schedule: Q07DX005 (ip), vehicle: saline); 20 % of control (endpoint: median tumor weight (est.), dose: 16.0 mg/kg/injection, schedule: Q07DX005 (ip), vehicle: suspension in saline). Also, the T/C (endpoint: median tumor weight (est.), dose: 32.0 mg/kg/injection, schedule: Q07DX005 (ip), vehicle: saline) was 30 % of control; the T/C (endpoint: median tumor weight (est.), dose: 32.0 mg/kg/injection, schedule: Q07DX005 (ip), vehicle: suspension in saline) was 51 % of control; the T/C (endpoint: median tumor weight (est.), dose: 64.0 mg/kg/injection, schedule: Q07DX005 (ip), vehicle: saline) is 27 % of control; the T/C (endpoint: median tumor weight (est.), dose: 64.0 mg/kg/injection, schedule: Q07DX005 (ip), vehicle: suspension in saline) is 12 % of control.
